Measured values as given in ChEMBL document CHEMBL5096191 (J Med Chem, 2021).

Experiments:
Type in all cases: functional, cell-based
[1] = target: T1, Cannabinoid receptor 2 (Homo sapiens, UniProt P34972); assay: Partial agonist activity at wild type CB2 receptor (unknown origin) expressed in HEK293T assessed as increase in ERK1/2 phosphorylation incubated for 7 mins by AlphaScreenSureFire method relative to control; conditions: filed as partial agonist
[2] = target: T1, Cannabinoid receptor 2; assay: Partial agonist activity at wild type CB2 receptor (unknown origin) stably expressed in HEK293T assessed as decrease in forskolin induced cAMP level preincubated for 15 mins followed by forskolin addition incubated for 15 mins by HTRF assay
[3] = target: Cannabinoid receptor 2 (Homo sapiens, UniProt P34972, S285L); assay: Partial agonist activity at CBR2 S2857.39L mutant (unknown origin) stably expressed in HEK293T assessed as decrease in forskolin induced cAMP level preincubated for 15 mins followed by forskolin addition incubated for 15 mins in presence of cannabidiol by HTRF assay
[4] = test system: Cannabinoid receptor 2 (Homo sapiens), P34972 [S285L]; assay: Partial agonist activity at CBR2 S2857.39L mutant (unknown origin) expressed in HEK293T assessed as increase in picometer shifts of reflected light wavelengths in presence of cannabidiol by DMR assay relative to control; conditions: filed as partial agonist
[5] = test system: Cannabinoid receptor 2 (Homo sapiens), P34972 [S285L]; assay: Partial agonist activity at CBR2 S2857.39L mutant (unknown origin) expressed in HEK293T assessed as increase in ERK1/2 phosphorylation incubated for 7 mins by AlphaScreenSureFire method relative to control; conditions: filed as partial agonist

Chain of Cannabinoid receptor 2 (Homo sapiens), P34972 [S285L] (P34972 whole entry S285L): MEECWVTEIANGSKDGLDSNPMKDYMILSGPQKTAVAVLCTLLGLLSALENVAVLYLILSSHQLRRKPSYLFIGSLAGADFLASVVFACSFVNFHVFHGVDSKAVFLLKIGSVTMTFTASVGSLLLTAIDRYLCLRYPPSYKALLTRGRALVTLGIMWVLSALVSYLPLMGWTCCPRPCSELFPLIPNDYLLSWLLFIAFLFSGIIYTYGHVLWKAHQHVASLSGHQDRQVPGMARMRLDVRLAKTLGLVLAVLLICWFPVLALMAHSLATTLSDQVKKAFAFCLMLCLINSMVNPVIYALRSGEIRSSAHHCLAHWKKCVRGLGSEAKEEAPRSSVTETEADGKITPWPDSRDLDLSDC
T1 sequence (P34972 whole entry): as the sequence (P34972 whole entry S285L) above, with L285S counted along it
Chain of Cannabinoid receptor 2 (Homo sapiens, UniProt P34972, S285L) (P34972 whole entry S285L): as the sequence (P34972 whole entry S285L) above

CCCC(C)(C)c1cc(O)c2c(c1)OC(C)(C)[C@@H]1CC=C(C)C[C@@H]21
Emax [1]: 322%
EC50 [2]: 31.6 nM
EC50 [3]: 39.8 nM
Emax [4]: 165%
Emax [5]: 374%
